{
  "source": "patent US6413739B1",
  "about": "“AMPA-binding human GLuR3 receptors” (priority 1992, dated 2002)",
  "key": {"human GluR3B receptor": {"test_system": "human GluR3B receptor", "assay": "binding assays with membrane preparations of engineered mammalian cells", "excerpt": "This feature, coupled with the medically significant connection between AMPA-type receptors and neurological disorders and disease indicate that the present receptors, as well as AMPA-binding fragments and variants thereof, will serve as valuable tools in the screening and discovery of ligands useful to modulate in vivo interactions between such receptors and their natural ligand, glutamate. Thus, a key aspect of the present invention resides in the construction of cells that are engineered genetically to produce human GluR3 receptor, to serve as a ready and homogeneous source of receptor for use in in vitro ligand binding and/or channel activation assays."}, "human GluR3A receptor [1]": {"test_system": "human GluR3A receptor", "assay": "AMPA-binding assay, membranes of transfected COS-1 cells", "method": "(§1) Transfected cells in the frozen state were resuspended in ice-cold distilled water using a hand homogenizer, sonicated for 5 seconds, and then centrifuged for 20 minutes at 50,000 g. The supernatant was discarded and the membrane pellet stored frozen at −70 C.\n(§2) COS cell membrane pellets were suspended in ice cold 50 mM Tris-HCl (pH 7.55, 5 C) and centrifuged again at 50,000 g for 10 minutes in order to remove endogenous glutamate that would compete for binding. Pellets were resuspended in ice cold 50 mM Tris-HCl (pH 7.55) buffer and the resultant membrane preparation was used as tissue source for binding experiments described below. Proteins were determined using the Pierce Reagent with BSA as standard.\nBinding assays were then performed, using an amount of COS-derived membrane equivalent to from 25-100 ug as judged by protein determination and selected radiolabelled ligand. In particular, for AMPA-binding assays, incubation mixtures consisted of 25-100 ug tissue protein and D,L-alpha-[5-methyl-3H]amino-3-hydroxy-5-methylisoxazole-4-propionic acid (3H-AMPA, 27.6 Ci/mmole, 10 nM final) with 0.1 M KSCN and 2.5 mM CaCl2 in the 1 ml final volume. Non-specific […] binding was determined in the presence of 1 mM L-glutamate. […] Pellets were washed twice in 6 ml of the cold incubation buffer, then 5 ml of Beckman Ready-Protein Plus scintillation cocktail was added, for counting."}, "human GluR3A receptor [2]": {"test_system": "human GluR3A receptor", "assay": "kainate-binding assay, membranes of transfected COS-1 cells", "conditions": "COS cell membranes; [vinylidene-3H] kainic acid 5 nM", "method": "as §1, §2\nFor kainate-binding assays, incubation mixtures consisted of 25-100 ug tissue protein and [vinylidene-3H] kainic acid (58 Ci/mmole, 5 nM final) in the cold incubation buffer, 1 ml final volume. Non-specific binding was determined in the presence of 1 mM L-glutamate. Samples were incubated as for the AMPA-binding assays, and bound and free ligand were separated by rapid filtration using a Brandel cell harvester and GF/B filters pre-soaked in ice-cold 0.3% polyethyleneimine. Filters were washed twice in 6 ml of the cold incubation buffer, then placed in scintillation vials with 5 ml of Beckman Ready-Protein Plus scintillation cocktail for counting."}, "human GluR3 receptor": {"test_system": "human GluR3 receptor", "assay": "ligand binding assay (NMDA), membranes of transfected COS cells", "conditions": "COS cell membranes"}},
  "data": [
    {"smiles": "Cc1onc(O)c1CC(N)C(=O)O", "note": "(stereo not drawn) [AMPA, alpha-amino-3-hydroxy-5-methyl-isoxazole-4propionate]", "values": [
      {"measurement": "selective binding relative to kainate and NMDA", "setting": "human GluR3B receptor", "result": "bind selectively"},
      {"measurement": "specific binding", "setting": "human GluR3A receptor [1]; 10 nM [3H]-AMPA, COS cell membranes, non-specific binding with 1 mM L-glutamate, FIG. 7", "result": "25-30 fmole/mg protein"},
      {"measurement": "selective binding relative to kainate and NMDA", "setting": "human GluR3A receptor [1]; human GluR3A, membrane preparations", "result": "bind selectively"}
    ]},
    {"smiles": "C=C(C)[C@H]1CN[C@H](C(=O)O)[C@H]1CC(=O)O", "note": "[kainate, kainic acid]", "values": [
      {"measurement": "binding of kainate", "setting": "human GluR3A receptor [2]", "result": "little or no demonstrable binding"}
    ]},
    {"smiles": "CN[C@H](CC(=O)O)C(=O)O", "note": "[NMDA, N-methyl-D-aspartate]", "values": [
      {"measurement": "binding of NMDA", "setting": "human GluR3 receptor", "result": "little or no demonstrable binding"}
    ]}
  ]
}
